From patent publication US20150132404A1, “Equine feed for the reduction of ulcers in performance horses” (priority 2013, published 2015)

Tested on: horses
Assay: Observation of horses fed the feed supplement mixture (testing of the product)
Format: in vivo, horse
Excerpt: A dry horse feed supplement for the prevention and treatment of ulcers in horses, especially those involved in performance activities, provides a feed supplement mixture comprising a quantity of forage or filler product; a quantity of grain product, a quantity of protein product, a quantity of roughage product, essential vitamins and trace minerals, a yeast product, fat, molasses, a measured quantity of thiamine (Vitamin B1) and a measured quantity of sodium bicarbonate. The feed supplement mixture is fed to a horse based upon the total weight of the horse, in an amount between 0.50-1.50% of the body weight, depending upon the level of work and activity stress of the horse.
The feed composition ingredients, delivered in the parameters set above with regard to content quantity by percentage includes the ingredients list, in order of most ingredient quantity to least ingredients quantity, provides the feed containing no less than 14% crude protein, 6.5% crude fat, a no more than 22% crude fiber, no less than 0.6% and no more than 1% calcium, no less than 0.3% phosphorus, as well as quantities of zinc, copper, selenium, Vitamin A and Vitamin E. There are special blends suited for older performance horses and other blends for various younger performance horses. […]

Structure (SMILES)	pH level in the digestive tract (sodium bicarbonate at the recommended levels in the feed)	effect on demeanor / stress level of the horse (fed in the feed supplement mixture at 0.5-1.5% of body weight)
O=C([O-])O.[Na+] [sodium bicarbonate]	acts as a buffer and maintains an optimal ph level in the digestive tract	
Cc1ncc(C[n+]2csc(CCO)c2C)c(N)n1 [thiamine]		calming effect on horses
